From patent publication US7772241B2, “Variolin derivatives and their use as antitumor agents” (Pharma Mar S.A., priority 2001, dated 2010)

What was measured:
PANC-1 = assay: Inhibition of cells growth by colorimetric (SRB) assay, PANC-1; conditions: for GI50: read-out: GI50 PANC-1, SRB assay, 48 hours exposure
Method in brief: (§1)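 Human tumour cells seeded at 5×10^3/well in RPMI 1640 10% FBS, attached 18 h, then exposed 48 h to samples at 10 to 10^−8 μg/ml in DMSO/EtOH/PBS (0.5:0.5:99). Growth read by SRB staining after TCA fixation, OD 490 nm, triplicate wells; GI, TGI and LC derived.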

LNCaP = assay: Inhibition of cells growth by colorimetric (SRB) assay, LNCaP; conditions: for GI50 / CC50: Homo sapiens, LNCaP, 48 h; for GI50: read-out: GI50 LN-caP, SRB assay, 48 hours exposure; for CC50: read-out: LC50 LN-caP, SRB assay, 48 hours exposure; for TGI LN-caP: SRB assay, 48 hours exposure
Method in brief: as §1

SK-MEL-28 = assay: Inhibition of cells growth by colorimetric (SRB) assay, SK-MEL-28; conditions: for GI50 / CC50: Homo sapiens, SK-MEL-28, 48 h; for GI50: read-out: GI50 MEL-28, SRB assay, 48 hours exposure; for CC50: read-out: LC50 MEL-28, SRB assay, 48 hours exposure; for TGI MEL-28: SRB assay, 48 hours exposure
Method in brief: as §1

K-562 = assay: Inhibition of cells growth by colorimetric (SRB) assay, K-562; conditions: for GI50 / CC50: Homo sapiens, K562, 48 h; for GI50: read-out: GI50 K-562, SRB assay, 48 hours exposure; for CC50: read-out: LC50 K-562, SRB assay, 48 hours exposure; for TGI K-562: SRB assay, 48 hours exposure
Method in brief: as §1

DU-145 = assay: Inhibition of cells growth by colorimetric (SRB) assay, DU-145; conditions: for GI50 / CC50: Homo sapiens, DU-145, 48 h; for GI50: read-out: GI50 DU-145, SRB assay, 48 hours exposure; for CC50: read-out: LC50 DU-145, SRB assay, 48 hours exposure; for TGI DU-145: SRB assay, 48 hours exposure
Method in brief: as §1

SK-BR-3 = assay: Inhibition of cells growth by colorimetric (SRB) assay, SK-BR-3; conditions: for GI50 / CC50: Homo sapiens, SK-BR-3, 48 h; for GI50: read-out: GI50 SK-BR-3, SRB assay, 48 hours exposure; for CC50: read-out: LC50 SK-BR-3, SRB assay, 48 hours exposure; for TGI SK-BR-3: SRB assay, 48 hours exposure
Method in brief: as §1

IGROV-1 = assay: Inhibition of cells growth by colorimetric (SRB) assay, IGROV-1; conditions: for GI50 / CC50: Homo sapiens, IGROV-1, 48 h; for GI50: read-out: GI50 IGROV, SRB assay, 48 hours exposure; for CC50: read-out: LC50 IGROV, SRB assay, 48 hours exposure; for TGI IGROV: SRB assay, 48 hours exposure
Method in brief: as §1

IGROV-ET = assay: Inhibition of cells growth by colorimetric (SRB) assay, IGROV-ET; conditions: for GI50 / CC50: Homo sapiens, 48 h; for GI50: read-out: GI50 IGROV-ET, SRB assay, 48 hours exposure; for CC50: read-out: LC50 IGROV-ET, SRB assay, 48 hours exposure; for TGI IGROV-ET: SRB assay, 48 hours exposure
Method in brief: as §1

HMEC1 = assay: Inhibition of cells growth by colorimetric (SRB) assay, HMEC1; conditions: for GI50: Homo sapiens, HMEC-1, 48 h, read-out: GI50 H-MEC-1, SRB assay, 48 hours exposure; for TGI H-MEC-1: SRB assay, 48 hours exposure, in M (unit assumed)
[1] = as above; conditions: human, HMEC1 cells, LC50 H-MEC-1, SRB assay, 48 hours exposure
SK-OV-3 = assay: Inhibition of cells growth by colorimetric (SRB) assay, SK-OV-3
Method in brief: as §1

A-549 = assay: Inhibition of cells growth by colorimetric (SRB) assay, A-549; conditions: for GI50 / CC50: Homo sapiens, A549, 48 h; for GI50: read-out: GI50 A-549, SRB assay, 48 hours exposure; for CC50: read-out: LC50 A-549, SRB assay, 48 hours exposure; for TGI A-549: SRB assay, 48 hours exposure
Method in brief: as §1

HT-29 = assay: Inhibition of cells growth by colorimetric (SRB) assay, HT-29; conditions: for GI50 / CC50: Homo sapiens, HT-29, 48 h; for GI50: read-out: GI50 HT-29, SRB assay, 48 hours exposure; for CC50: read-out: LC50 HT-29, SRB assay, 48 hours exposure; for TGI HT-29: SRB assay, 48 hours exposure
Method in brief: as §1

LoVo = assay: Inhibition of cells growth by colorimetric (SRB) assay, LoVo
Method in brief: as §1

LoVo-Dox = assay: Inhibition of cells growth by colorimetric (SRB) assay, LoVo-Dox
Method in brief: as §1

SMILES | GI50 (PANC-1; Homo sapiens, PANC-1, 48 h) [µM] | GI50 (LNCaP) [µM] | CC50 (LNCaP) [µM] | TGI LN-caP (LNCaP) | GI50 (SK-MEL-28) [µM] | CC50 (SK-MEL-28) [µM] | TGI MEL-28 (SK-MEL-28) | GI50 (K-562) [µM] | CC50 (K-562) [µM] | TGI K-562 (K-562) | GI50 (DU-145) [µM] | CC50 (DU-145) [µM] | TGI DU-145 (DU-145) | GI50 (SK-BR-3) [µM] | GI50 (HMEC1) [µM] | TGI H-MEC-1 (HMEC1) | CC50 at 48 h [1] [µM] | GI50 (A-549) [µM] | CC50 (A-549) [µM] | TGI A-549 (A-549) | also measured
COc1ccc(CNc2ccnc3c2c(-c2ccnc([S+](C)[O-])n2)c2ccnc(NCc4ccc(OC)cc4)n23)cc1 (stereo not shown) [Compound 86] | ≥ 17.3 | ≥ 17.3 | ≥ 17.3 | 1.73E−05 | ≥ 17.3 | ≥ 17.3 | 1.73E−05 | ≥ 17.3 | ≥ 17.3 | 1.73E−05 | ≥ 17.3 | ≥ 17.3 | 1.73E−05 | ≥ 17.3 | 7.99 | 1.73E−05 | ≥ 17.3 | ≥ 17.3 | ≥ 17.3 | 1.73E−05 | CC50 (SK-BR-3): ≥ 17.3 µM; TGI SK-BR-3 (SK-BR-3): 1.73E−05; GI50 (IGROV-1): ≥ 17.3 µM; CC50 (IGROV-1): ≥ 17.3 µM; TGI IGROV (IGROV-1): 1.73E−05; GI50 (IGROV-ET): ≥ 17.3 µM; CC50 (IGROV-ET): ≥ 17.3 µM; TGI IGROV-ET (IGROV-ET): 1.73E−05; GI50 (SK-OV-3; Homo sapiens, SK-OV-3, 48 h, read-out: GI50 SKOV-3, SRB assay, 48 hours exposure): ≥ 17.3 µM; CC50 (SK-OV-3; Homo sapiens, SK-OV-3, 48 h, read-out: LC50 SKOV-3, SRB assay, 48 hours exposure): ≥ 17.3 µM; TGI SKOV-3 (SK-OV-3; SRB assay, 48 hours exposure): 1.73E−05
COc1nccc(-c2c3c(N)ccnc3n3c(N)nccc23)n1 [Compound 88] | 5.85 | 0.415 | 1.59 | 8.13E−07 | 1.43 | 11.2 | 4.17E−06 | 6.09 | 18.7 | 1.87E−05 | 0.902 | 18.7 | 1.87E−05 | 0.562 | 0.99 | 9.71E−06 | 18.7 | 1.03 | 18.7 | 6.95E−06 | CC50 (PANC-1; Homo sapiens, PANC-1, 48 h, read-out: LC50 PANC-1, SRB assay, 48 hours exposure): 18.7 µM; TGI PANC-1 (PANC-1; SRB assay, 48 hours exposure): 1.87E−05; GI50 (HT-29): 1.03 µM; CC50 (HT-29): 18.7 µM; TGI HT-29 (HT-29): 1.87E−05; CC50 (SK-BR-3): 18.7 µM; TGI SK-BR-3 (SK-BR-3): 1.36E−06; GI50 (IGROV-1): 3.23 µM; CC50 (IGROV-1): 18.7 µM; TGI IGROV (IGROV-1): 9.58E−06; GI50 (IGROV-ET): 1.4 µM; CC50 (IGROV-ET): 18.7 µM; TGI IGROV-ET (IGROV-ET): 6.74E−06; GI50 (LoVo; Homo sapiens, LoVo, 48 h, read-out: GI50 LOVO, SRB assay, 48 hours exposure): 1.34 µM; CC50 (LoVo; Homo sapiens, LoVo, 48 h, read-out: LC50 LOVO, SRB assay, 48 hours exposure): 12.9 µM; TGI LOVO (LoVo; SRB assay, 48 hours exposure): 4.37E−06; GI50 (LoVo-Dox; Homo sapiens, 48 h, read-out: GI50 LOVO-DOX, SRB assay, 48 hours exposure): 1.06 µM; CC50 (LoVo-Dox; Homo sapiens, 48 h, read-out: LC50 LOVO-DOX, SRB assay, 48 hours exposure): 15.1 µM; TGI LOVO-DOX (LoVo-Dox; SRB assay, 48 hours exposure): 3.87E−06
CS(=O)(=O)c1nccc(-c2c3c(OCc4ccccc4)ccnc3n3c(N)nccc23)n1 [Compound 99] | – | – | – | – | – | – | – | – | – | – | – | – | – | – | 8.2 | 2.24E−05 | 22.4 | 22.4 | 22.4 | 2.24E−05 | GI50 (HT-29): 22.4 µM; CC50 (HT-29): 22.4 µM; TGI HT-29 (HT-29): 2.24E−05
